The target in one test is LSD1 (Homo sapiens, UniProt O60341). The test is described as follows: Enzyme inhibition assay (in vitro peroxidase assay) against LSD1.
The subject of the next test is KINGS1 and F3 cells. The test is described as follows: PARP cleavage (apoptosis) by western blot. The format is cell-based. The settings on record: KINGS1 and F3, 5 μM. The text has this: Super-enhancers consist of enhancer clusters with abundant binding of transcription factors and are highly enriched with H3K27ac marks. The H3K4me2 increased regions included the MYC locus and H3K4me2 de novo regions comprised Nestin and SOX2 loci (Fig. 2F, Supplementary Fig. S5A). These regions were also identified as super-enhancers in GSCs using data from our previous study (Fig. 2F). Compared to the large increase in H3K4me2 in these regions, changes in H3K4me3 were subtle after S2172 treatment (only 2582 regions were acquired modification) (Fig. 2C). Increasing the me2/me3 ratio at H3K4 is associated with reduced gene expression.
Supplementary Figure. S3 Shinjo K. et al […]
B. Western blot analysis of LSD1,MYC, Nestin, SOX2,and ACTB in same cells as shown in panel A. ACTB was used as a loading control. […] Quantification of signal intensities of the Western blot (right panel). […] Right panel: Quantification of band signal intensities from the Western blot. […] The ratio was calculated by dividing the cleaved PARP band intensity by the full-length PARP band intensity. […]
A. Left panel: Western blot analysis of H3K4me1, H3K4me2, H3K4me3, and H3K9me2 after treatment with either DMSO or S2172 5μM for 96 h in normal neural stem cell F3 . […] Right panel: Quantification of signal intensities of the Western blot. […]
C. […] Right panel: Quantification of band signal intensities from the Western blot. […]

Description for LSD1: Enzyme inhibition assays against LSD1, LSD2, MAO-A, and MAO-B were performed as previously described [25]. Technical replicates, n = 3.

Take `NC1CCC(NC2CC2c2cc(F)cc(F)c2OCc2ccccc2)CC1` (stereo not shown) [S2172]: affinity on LSD1 was put at a Ki of 270 ± 60 nM. Further, the inactivation rate constant (kinact) (usually the rate constant of inactivation at saturating inhibitor) on LSD1 (read-out: kinact LSD1) was determined as 0.0026 ± 0.0002 s⁻¹. The kinact/KI on LSD1 (read-out: kinact/Ki LSD1) came to 9800 ± 570 M⁻¹ s⁻¹. The cleaved-PARP levels result with KINGS1 and F3 cells is “not significantly increased”.

(Values after article PMC11645267, “Novel pharmacologic inhibition of lysine-specific demethylase 1 as a potential therapeutic for glioblastoma” (Cancer Gene Therapy, 2024).)
